Molecular target: Aurora B/INCENP (Homo sapiens, UniProt Q96GD4)
Test: Determination of inhibition of AIK: Aurora B/INCENP direct fluorescence polarization (IMAP) assay
Format: biochemical
Details: 10 uM ATP, 0.8 nM Aurora B/INCENP; values given as bins; read-out: IC50 of Exemplified Compounds Against AIK B

Chain of Aurora B/INCENP (Q96GD4 whole entry): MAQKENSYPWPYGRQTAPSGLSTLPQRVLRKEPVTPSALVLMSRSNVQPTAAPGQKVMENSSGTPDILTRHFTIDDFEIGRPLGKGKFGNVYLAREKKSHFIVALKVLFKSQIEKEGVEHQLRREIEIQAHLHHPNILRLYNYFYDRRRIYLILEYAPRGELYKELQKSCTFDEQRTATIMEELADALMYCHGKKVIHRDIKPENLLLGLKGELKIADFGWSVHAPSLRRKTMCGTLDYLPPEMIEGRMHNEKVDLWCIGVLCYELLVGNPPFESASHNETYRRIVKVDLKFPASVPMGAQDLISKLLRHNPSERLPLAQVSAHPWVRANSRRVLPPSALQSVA
Chain of Aurora B/INCENP (Q9NQS7 whole entry partner): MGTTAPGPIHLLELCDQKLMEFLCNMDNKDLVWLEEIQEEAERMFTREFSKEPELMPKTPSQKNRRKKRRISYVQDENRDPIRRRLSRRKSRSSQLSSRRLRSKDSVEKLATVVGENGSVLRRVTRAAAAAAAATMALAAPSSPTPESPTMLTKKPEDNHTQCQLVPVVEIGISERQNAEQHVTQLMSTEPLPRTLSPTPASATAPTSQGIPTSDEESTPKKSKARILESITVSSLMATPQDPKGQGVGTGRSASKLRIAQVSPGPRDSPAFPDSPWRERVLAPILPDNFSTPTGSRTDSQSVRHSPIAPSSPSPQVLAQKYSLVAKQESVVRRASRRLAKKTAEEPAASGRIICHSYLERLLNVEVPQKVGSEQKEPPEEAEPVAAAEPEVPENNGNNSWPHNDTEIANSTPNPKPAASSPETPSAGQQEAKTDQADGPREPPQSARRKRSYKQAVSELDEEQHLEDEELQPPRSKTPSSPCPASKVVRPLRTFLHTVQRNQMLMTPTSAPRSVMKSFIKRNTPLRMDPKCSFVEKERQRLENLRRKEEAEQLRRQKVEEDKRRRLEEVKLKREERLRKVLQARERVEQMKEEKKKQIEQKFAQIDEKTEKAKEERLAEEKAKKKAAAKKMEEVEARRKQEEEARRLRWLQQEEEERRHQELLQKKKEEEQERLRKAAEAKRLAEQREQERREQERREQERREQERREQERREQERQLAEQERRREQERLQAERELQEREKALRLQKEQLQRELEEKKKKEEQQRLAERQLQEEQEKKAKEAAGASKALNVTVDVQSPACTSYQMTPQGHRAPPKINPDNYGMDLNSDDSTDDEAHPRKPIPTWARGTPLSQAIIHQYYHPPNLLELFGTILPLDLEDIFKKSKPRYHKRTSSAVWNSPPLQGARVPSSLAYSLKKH

IC50	Compound
< 4 nM	CCS(=O)(=O)c1cccc(-c2cc(F)c(OCCCN(C)C)c3[nH]c4ncc(Cl)cc4c23)c1 [Compound 205, 3-(3-chloro-5-(3-(ethylsulfonyl)phenyl)-7-fluoro-9H-pyrido[2,3-b]indol-8-yloxy)-N,N-dimethylpropan-1-amine]
4 to 5.5 nM	CCS(=O)(=O)c1cccc(-c2ccc(OCCCN(C)C)c3[nH]c4ncc(C)cc4c23)c1 [Compound 206, 3-(5-(3-(ethylsulfonyl)phenyl)-3-methyl-9H-pyrido[2,3-b]indol-8-yloxy)-N,N-dimethylpropan-1-amine]
> 13 nM	CCS(=O)(=O)c1cccc(-c2ccc(OCCN(C)C)c3[nH]c4ncc(C)cc4c23)c1 [Compound 207, 2-(5-(3-(ethylsulfonyl)phenyl)-3-methyl-9H-pyrido[2,3-b]indol-8-yloxy)-N,N-dimethylethanamine]
8.6 to 13 nM	CCS(=O)(=O)c1cccc(-c2ccc(OCCOC)c3[nH]c4ncc(C)cc4c23)c1 [Compound 208, 5-(3-(ethylsulfonyl)phenyl)-8-(2-methoxyethoxy)-3-methyl-9H-pyrido[2,3-b]indole]
< 4 nM	CCS(=O)(=O)c1cccc(-c2ccc(OCC#N)c3[nH]c4ncc(C)cc4c23)c1 [Compound 209, 2-(5-(3-(ethylsulfonyl)phenyl)-3-methyl-9H-pyrido[2,3-b]indol-8-yloxy)acetonitrile]
> 13 nM	CCS(=O)(=O)c1cccc(-c2ccc(OCCC#N)c3[nH]c4ncc(C)cc4c23)c1 [Compound 210, 3-(5-(3-(ethylsulfonyl)phenyl)-3-methyl-9H-pyrido[2,3-b]indol-8-yloxy)propanenitrile]
5.6 to 8.5 nM	CCS(=O)(=O)c1cccc(-c2ccc(O[C@H](C)CO)c3[nH]c4ncc(C)cc4c23)c1 [Compound 212, (R)-2-(5-(3-(ethylsulfonyl)phenyl)-3-methyl-9H-pyrido[2,3-b]indol-8-yloxy)propan-1-ol]
4 to 5.5 nM	CCS(=O)(=O)c1cccc(-c2ccc(O[C@@H](C)CO)c3[nH]c4ncc(C)cc4c23)c1 [Compound 213, (S)-2-(5-(3-(ethylsulfonyl)phenyl)-3-methyl-9H-pyrido[2,3-b]indol-8-yloxy)propan-1-ol]
5.6 to 8.5 nM	CCS(=O)(=O)c1cccc(-c2ccc(OCCO)c3[nH]c4ncc(C)cc4c23)c1 [Compound 216, 2-(5-(3-(ethylsulfonyl)phenyl)-3-methyl-9H-pyrido[2,3-b]indol-8-yloxy)ethanol]
4 to 5.5 nM	CCS(=O)(=O)c1cccc(-c2ccc(OCCCO)c3[nH]c4ncc(C)cc4c23)c1 [Compound 217, 3-(5-(3-(ethylsulfonyl)phenyl)-3-methyl-9H-pyrido[2,3-b]indol-8-yloxy)propan-1-ol]
< 4 nM	CCS(=O)(=O)c1cccc(-c2ccc(OC)c3[nH]c4ncc(Cl)cc4c23)c1 [Compound 218]
4 to 5.5 nM	CCS(=O)(=O)c1cccc(-c2ccc(OCCCN(C)C)c3[nH]c4ncc(Cl)cc4c23)c1 [Compound 220, 3-(3-chloro-5-(3-(ethylsulfonyl)phenyl)-9H-pyrido[2,3-b]indol-8-yloxy)-N,N-dimethylpropan-1-amine]
5.6 to 8.5 nM	CCN(CC)CCOc1ccc(-c2cccc(S(=O)(=O)CC)c2)c2c1[nH]c1ncc(Cl)cc12 [Compound 221, 2-(3-chloro-5-(3-(ethylsulfonyl)phenyl)-9H-pyrido[2,3-b]indol-8-yloxy)-N,N-diethylethanamine]
4 to 5.5 nM	CCS(=O)(=O)c1cccc(-c2ccc(OCCN(C)C)c3[nH]c4ncc(Cl)cc4c23)c1 [Compound 222, 2-(3-chloro-5-(3-(ethylsulfonyl)phenyl)-9H-pyrido[2,3-b]indol-8-yloxy)-N,N-dimethylethanamine]
5.6 to 8.5 nM	CCS(=O)(=O)c1cccc(-c2ccc(OCCN3CCCC3)c3[nH]c4ncc(Cl)cc4c23)c1 [Compound 223, 3-chloro-5-(3-(ethylsulfonyl)phenyl)-8-(2-(pyrrolidin-1-yl)ethoxy)-9H-pyrido[2,3-b]indole]
5.6 to 8.5 nM	CCS(=O)(=O)c1cccc(-c2ccc(OCCN3CCN(C)CC3)c3[nH]c4ncc(Cl)cc4c23)c1 [Compound 224, 3-chloro-5-(3-(ethylsulfonyl)phenyl)-8-(2-(4-methylpiperazin-1-yl)ethoxy)-9H-pyrido[2,3-b]indole]
4 to 5.5 nM	CCS(=O)(=O)c1cccc(-c2ccc(OCCO)c3[nH]c4ncc(Cl)cc4c23)c1 [Compound 225, 2-(3-chloro-5-(3-(ethylsulfonyl)phenyl)-9H-pyrido[2,3-b]indol-8-yloxy)ethanol]
5.6 to 8.5 nM	CCS(=O)(=O)c1cccc(-c2ccc(OCCOC(=O)[C@H](C)N)c3[nH]c4ncc(C)cc4c23)c1 [Compound 226, (S)-2-(5-(3-(ethylsulfonyl)phenyl)-3-methyl-9H-pyrido[2,3-b]indol-8-yloxy)ethyl 2-aminopropanoate]
5.6 to 8.5 nM	CCS(=O)(=O)c1cccc(-c2ccc(OCCCOC(=O)[C@H](C)N)c3[nH]c4ncc(C)cc4c23)c1 [Compound 227, (S)-3-(5-(3-(ethylsulfonyl)phenyl)-3-methyl-9H-pyrido[2,3-b]indol-8-yloxy)propyl 2-aminopropanoate]

IC50	Compound
> 13 nM	Cc1cnc2[nH]c3c(C)c(C(=O)NC4CCN(C)CC4)cc(-c4cccc(C(=O)NC5CC5)c4)c3c2c1 [Compound 228, 5-(3-(cyclopropylcarbamoyl)phenyl)-3,8-dimethyl-N-(1-methylpiperidin-4-yl)-9H-pyrido[2,3-b]indole-7-carboxamide]
4 to 5.5 nM	CCS(=O)(=O)c1cccc(-c2ccc(OC[C@@H](O)CO)c3[nH]c4ncc(C)cc4c23)c1 [Compound 230, (S)-3-(5-(3-(ethylsulfonyl)phenyl)-3-methyl-9H-pyrido[2,3-b]indol-8-yloxy)propane-1,2-diol]
< 4 nM	CCS(=O)(=O)c1cccc(-c2ccc(OC[C@H](O)CO)c3[nH]c4ncc(C)cc4c23)c1 [Compound 231, (R)-3-(5-(3-(ethylsulfonyl)phenyl)-3-methyl-9H-pyrido[2,3-b]indol-8-yloxy)propane-1,2-diol]
5.6 to 8.5 nM	CCS(=O)(=O)c1cccc(-c2ccc(OC[C@H](O)CN(C)C)c3[nH]c4ncc(C)cc4c23)c1 [Compound 232, (R)-1-(dimethylamino)-3-(5-(3-(ethylsulfonyl)phenyl)-3-methyl-9H-pyrido[2,3-b]indol-8-yloxy)propan-2-ol]
5.6 to 8.5 nM	CCS(=O)(=O)c1cccc(-c2ccc(OC[C@@H](C)O)c3[nH]c4ncc(C)cc4c23)c1 [Compound 233, (R)-1-(5-(3-(ethylsulfonyl)phenyl)-3-methyl-9H-pyrido[2,3-b]indol-8-yloxy)propan-2-ol]
4 to 5.5 nM	CCS(=O)(=O)c1cccc(-c2ccc(OC[C@H](C)O)c3[nH]c4ncc(C)cc4c23)c1 [Compound 234, (S)-1-(5-(3-(ethylsulfonyl)phenyl)-3-methyl-9H-pyrido[2,3-b]indol-8-yloxy)propan-2-ol]
5.6 to 8.5 nM	CCS(=O)(=O)c1cccc(-c2cc(NC(=O)CCN(C)C)c(OC)c3[nH]c4ncc(C)cc4c23)c1 [Compound 240, 3-(dimethylamino)-N-(5-(3-(ethylsulfonyl)phenyl)-8-methoxy-3-methyl-9H-pyrido[2,3-b]indol-7-yl)propanamide]
8.6 to 13 nM	CCS(=O)(=O)c1cccc(-c2cc(NC(=O)C3CC3)c(OC)c3[nH]c4ncc(C)cc4c23)c1 [Compound 242, N-(5-(3-(ethylsulfonyl)phenyl)-8-methoxy-3-methyl-9H-pyrido[2,3-b]indol-7-yl)-cyclopropanecarboxamide]
8.6 to 13 nM	CCS(=O)(=O)c1cccc(-c2cc(NC(=O)C3CCN(C(C)=O)CC3)c(OC)c3[nH]c4ncc(C)cc4c23)c1 [Compound 243, 1-acetyl-N-(5-(3-(ethylsulfonyl)phenyl)-8-methoxy-3-methyl-9H-pyrido[2,3-b]indol-7-yl)piperidine-4-carboxamide]
5.6 to 8.5 nM	CCS(=O)(=O)c1cccc(-c2cc(Cl)c(OC)c3[nH]c4ncc(C)cc4c23)c1 [Compound 246, 7-chloro-5-(3-(ethylsulfonyl)phenyl)-8-methoxy-3-methyl-9H-pyrido[2,3-b]indole]
> 13 nM	CCS(=O)(=O)c1cccc(-c2cc(Cl)c(OCCCO)c3[nH]c4ncc(C)cc4c23)c1 [Compound 248, 3-(7-chloro-5-(3-(ethylsulfonyl)phenyl)-3-methyl-9H-pyrido[2,3-b]indol-8-yloxy)propan-1-ol]
> 13 nM	CCS(=O)(=O)c1cccc(-c2cc(N(C)C(=O)C3CC3)c(OC)c3[nH]c4ncc(C)cc4c23)c1 [Compound 253, N-(5-(3-(ethylsulfonyl)phenyl)-8-methoxy-3-methyl-9H-pyrido[2,3-b]indol-7-yl)-N-methylcyclopropanecarboxamide]
> 13 nM	CCS(=O)(=O)c1cccc(-c2cc(N(C)C(=O)CCN(C)C)c(OC)c3[nH]c4ncc(C)cc4c23)c1 [Compound 254, 3-(dimethylamino)-N-(5-(3-(ethylsulfonyl)phenyl)-8-methoxy-3-methyl-9H-pyrido[2,3-b]indol-7-yl)-N-methylpropanamide]
> 13 nM	CCS(=O)(=O)c1cccc(-c2ccc(OCCN3CCOCC3)c3[nH]c4ncc(Cl)cc4c23)c1 [Compound 255, 4-(2-(3-chloro-5-(3-(ethylsulfonyl)phenyl)-9H-pyrido[2,3-b]indol-8-yloxy)ethyl)morpholine]
> 13 nM	CCS(=O)(=O)c1cccc(-c2ccc(OCCC#N)c3[nH]c4ncc(Cl)cc4c23)c1 [Compound 256, 3-(3-chloro-5-(3-(ethylsulfonyl)phenyl)-9H-pyrido[2,3-b]indol-8-yloxy)propanenitrile]
> 13 nM	CCS(=O)(=O)c1cccc(-c2ccc(OCCCN(C)C)c3[nH]c4ncc(C(F)(F)F)cc4c23)c1 [Compound 258, 3-(5-(3-(ethylsulfonyl)phenyl)-3-(trifluoromethyl)-9H-pyrido[2,3-b]indol-8-yloxy)-N,N-dimethylpropan-1-amine]
> 13 nM	COc1ccc(-c2cccc(C(=O)N3CCOCC3)c2)c2c1[nH]c1ncc(C)cc12 [Compound 259, (3-(8-methoxy-3-methyl-9H-pyrido[2,3-b]indol-5-yl)phenyl)(morpholino)methanone]
> 13 nM	CONC(=O)c1cccc(-c2ccc(OC)c3[nH]c4ncc(C)cc4c23)c1 [Compound 260, N-methoxy-3-(8-methoxy-3-methyl-9H-pyrido[2,3-b]indol-5-yl)benzamide]

Reference: patent US20090312288A1 (TAKEDA PHARMACEUTICAL COMPANY LIMITED, priority 2008, published 2009)
